Patent EP4707280A1, “1,4-CINEOLE DERIVATIVE AND INTERMEDIATE THEREOF, HERBICIDE CONTAINING SAID DERIVATIVE AS ACTIVE INGREDIENT, METHOD FOR USING HERBICIDE, AND METHOD FOR PREPARING AGROCHEMICAL COMPOSITION” (HOKKO CHEMICAL INDUSTRY CO., LTD., priority 2023, dated 2024)

How the values were obtained:
Assay type in all cases: in vivo
[1] = system: Echinochloa crus-galli var. formosensis; test: Test Example 1: herbicidal effect test by soil application in paddy rice; conditions: Echinochloa crus-galli, soil, 336 h; 120 g active ingredient per 10 ares; applied immediately after sowing, flooded pots; 14 days after application; read-out: weed inhibition rate
Outline: (§1)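 Pre-emergence paddy treatment: diluted emulsifiable concentrate applied by dropper at 120 g a.i./10 ares immediately after sowing. Seeds (30 per species, 0–1 cm deep) in fertilized, puddled paddy soil kept under ~3 cm flood in a glass greenhouse.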

[2] = system: Scirpus juncoides; test: as above; conditions: Schoenoplectiella juncoides, soil, 336 h; 120 g active ingredient per 10 ares; applied immediately after sowing, flooded pots; 14 days after application; read-out: weed inhibition rate
Outline: as §1

[3] = system: Echinochloa crus-galli var. formosensis; test: Test Example 2: herbicidal effect test by application during growth period of paddy rice; conditions: Echinochloa crus-galli; 120 g per 10 ares; applied seven days after sowing, flooded pots; 14 days after application; read-out: weed inhibition rate
Outline: (§2)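 Paddy soil in flooded pots (water depth about 3 cm) was sown with weed seeds and kept in a glass greenhouse. Seven days after sowing, a diluted emulsifiable concentrate was applied by dropper at 120 g active ingredient per 10 ares. Weed inhibition was evaluated 14 days after application, in duplicate.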

[4] = system: Scirpus juncoides; test: as above; conditions: Schoenoplectiella juncoides; 120 g per 10 ares; applied seven days after sowing, flooded pots; 14 days after application; read-out: weed inhibition rate
Outline: as §2

[5] = system: Digitaria ciliaris; test: Test Example 3: herbicidal effect test by soil application in upland field; conditions: Digitaria ciliaris, 120 g per 10 ares, sprayed one day after sowing, 14 days after application, read-out: weed inhibition rate
Outline: (§3)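 Weed inhibition (%) was assessed 14 days after treatment, in duplicate per concentration group. Seeds had been mixed into the upper 1 cm of upland alluvial loam, and the soil surface was sprayed one day later with the diluted emulsifiable concentrate at 120 g active ingredient per 10 ares.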

[6] = system: Echinochloa crus-galli; test: as above; conditions: Echinochloa crus-galli, 120 g per 10 ares, sprayed one day after sowing, 14 days after application, read-out: weed inhibition rate
Outline: as §3

[7] = system: Digitaria ciliaris; test: Test Example 4: herbicidal effect test by stem and leaf treatment in upland field; conditions: Digitaria ciliaris; 120 g per 10 ares; sprayed seven days after sowing, upland soil; 14 days after application; read-out: weed inhibition rate
[8] = system: Echinochloa crus-galli; test: as above; conditions: Echinochloa crus-galli; 120 g per 10 ares; sprayed seven days after sowing, upland soil; 14 days after application; read-out: weed inhibition rate
[9] = system: Echinochloa crus-galli var. formosensis; test: Test Example 5: herbicidal effect test by soil application in paddy rice (low dose); conditions: Echinochloa crus-galli, soil, 336 h; 7.5 g per 10 ares; applied immediately after sowing, flooded pots; 14 days after application; read-out: weed inhibition rate
Outline: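 Paddy-soil pots, weeds sown 0–1 cm deep and flooded to about 3 cm in a greenhouse. Emulsifiable concentrate diluted in water and dropped in right after sowing at 7.5 g active ingredient per 10 ares. Duplicates; effect scored 14 days after application.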

[10] = system: Echinochloa crus-galli var. formosensis; test: Test Example 6: herbicidal effect test by application during growth period of paddy rice (low dose); conditions: Echinochloa crus-galli; 7.5 g per 10 ares; applied seven days after sowing, flooded pots; 14 days after application; read-out: weed inhibition rate
Outline: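 Formulated compound, diluted in water, was dropped onto flooded pots seven days post-sowing at 7.5 g a.i. per 10 ares. Seeds had been sown 0-1 cm deep in puddled paddy soil under ~3 cm water in a glass greenhouse. Inhibition (%) assessed at 14 days; duplicate pots.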

[11] = system: Digitaria ciliaris; test: Test Example 7: herbicidal effect test by soil application in upland field (low dose); conditions: Digitaria ciliaris, 7.5 g per 10 ares, sprayed one day after sowing, 14 days after application, read-out: weed inhibition rate
Outline: (§4)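 Upland alluvial loam pots, seeds mixed into top 1 cm of soil; one day after sowing, diluted emulsifiable concentrate sprayed on soil at 100 L/10 a, giving 7.5 g active ingredient/10 a. Duplicate pots; weed inhibition rate (%) scored 14 days after application.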

[12] = system: Echinochloa crus-galli; test: as above; conditions: Echinochloa crus-galli, 7.5 g per 10 ares, sprayed one day after sowing, 14 days after application, read-out: weed inhibition rate
Outline: as §4

[13] = system: Digitaria ciliaris; test: Test Example 8: herbicidal effect test by stem and leaf treatment in upland field (low dose); conditions: Digitaria ciliaris; 7.5 g per 10 ares; sprayed seven days after sowing, upland soil; 14 days after application; read-out: weed inhibition rate
[14] = system: Echinochloa crus-galli; test: as above; conditions: Echinochloa crus-galli; 7.5 g per 10 ares; sprayed seven days after sowing, upland soil; 14 days after application; read-out: weed inhibition rate

CC(C)[C@]12C[C@@H](OCc3c(F)cccc3Cl)[C@](C)(C[C@@H]1I)O2 [1-780, (1R,2S,4S,5R)-5-[(2-chloro-6-fluoro-phenyl)methoxy]-2-iodo-1-isopropyl-4-methyl-7-oxabicyclo[2.2.1]heptane]
≥ 80%: pest or weed control at 1200 g/ha [1] | pest or weed control at 1200 g/ha [2] | inhibition at 1200 g/ha [3] | inhibition at 1200 g/ha [4] | inhibition at 1200 g/ha [5] | inhibition at 1200 g/ha [6] | inhibition at 1200 g/ha [7] | inhibition at 1200 g/ha [8] | inhibition at 75 g/ha [9] | inhibition at 75 g/ha [10] | inhibition at 75 g/ha [11] | inhibition at 75 g/ha [12] | inhibition at 75 g/ha [13] | inhibition at 75 g/ha [14]

CC(C)C12C=CC(C)(O1)C(OCc1ccccn1)C2 (stereo not shown) [3-755, 2-[(1-methyl-4-isopropyl-7-oxabicyclo[2.2.1]hept-5-en-2-yl)oxymethyl]pyridine]
≥ 80%: pest or weed control at 1200 g/ha [1] | pest or weed control at 1200 g/ha [2] | inhibition at 1200 g/ha [3] | inhibition at 1200 g/ha [4] | inhibition at 1200 g/ha [5] | inhibition at 1200 g/ha [6] | inhibition at 1200 g/ha [7] | inhibition at 1200 g/ha [8] | inhibition at 75 g/ha [9] | inhibition at 75 g/ha [10] | inhibition at 75 g/ha [11] | inhibition at 75 g/ha [12] | inhibition at 75 g/ha [13] | inhibition at 75 g/ha [14]

CC(C)[C@]12C=C[C@](C)(O1)[C@H](OCC1CCCCC1)C2 [3-697, (1R,4S,5R)-5-(cyclohexylmethoxy)-1-isopropyl-4-methyl-7-oxabicyclo[2.2.1]hept-2-ene]
≥ 80%: pest or weed control at 1200 g/ha [1] | pest or weed control at 1200 g/ha [2] | inhibition at 1200 g/ha [3] | inhibition at 1200 g/ha [4] | inhibition at 1200 g/ha [5] | inhibition at 1200 g/ha [6] | inhibition at 1200 g/ha [7] | inhibition at 1200 g/ha [8] | inhibition at 75 g/ha [9] | inhibition at 75 g/ha [10] | inhibition at 75 g/ha [11] | inhibition at 75 g/ha [12] | inhibition at 75 g/ha [13] | inhibition at 75 g/ha [14]

CC(C)[C@]12CC(OCc3ccccc3)[C@](C)(C[C@@H]1Cl)O2 (mixture of isomers) [1-8, (1R,2S,4S,SR)-5-benzyloxy-2-chloro-1-isopropyl-4-methyl-7-oxabicyclo[2.2.1]heptane]
≥ 80%: pest or weed control at 1200 g/ha [1] | pest or weed control at 1200 g/ha [2] | inhibition at 1200 g/ha [3] | inhibition at 1200 g/ha [4] | inhibition at 1200 g/ha [5] | inhibition at 1200 g/ha [6] | inhibition at 1200 g/ha [7] | inhibition at 1200 g/ha [8] | inhibition at 75 g/ha [9] | inhibition at 75 g/ha [10] | inhibition at 75 g/ha [11] | inhibition at 75 g/ha [12] | inhibition at 75 g/ha [13] | inhibition at 75 g/ha [14]

CC(C)=CCO[C@@H]1C[C@]2(C(C)C)O[C@@]1(C)C[C@@H]2I [1-732, (1R,2S,4S,5R)-2-iodo-1-isopropyl-4-methyl-5-(3-methylbut-2-enoxy)-7-oxabicyclo[2.2.1]heptane]
≥ 80%: pest or weed control at 1200 g/ha [1] | pest or weed control at 1200 g/ha [2] | inhibition at 1200 g/ha [3] | inhibition at 1200 g/ha [4] | inhibition at 1200 g/ha [5] | inhibition at 1200 g/ha [6] | inhibition at 1200 g/ha [7] | inhibition at 1200 g/ha [8] | inhibition at 75 g/ha [9] | inhibition at 75 g/ha [10] | inhibition at 75 g/ha [11] | inhibition at 75 g/ha [12] | inhibition at 75 g/ha [13] | inhibition at 75 g/ha [14]
